Experiments:
[1] = PAMPA assay; assay type: in vitro ADME; settings: for Papp at 5 h, 1 μM: pH 7.4
[2] = tested on: L1210 (ATCC CCL-219) mouse lymphocytic leukemia cells; experiment: Cell growth inhibition assay; assay type: cell-based; settings: for fold less active than duocarmycin SA (loss in activity): L1210, relative to duocarmycin SA

Row | Compound | Papp at 5 h, 1 μM [1] | fold reduction in permeability relative to 2 ([1]; relative to 2) | IC50 ([2]; Mus musculus, L1210, read-out: –log IC50, cell growth inhibition (converted)) | fold less active than duocarmycin SA (loss in activity) [2]
1 | COCCOCCOCCOCCOCCOc1cc2cc(C(=O)N3C[C@@H](CCl)c4c3cc(O)c3[nH]c(C(=O)OC)cc43)[nH]c2c(OCCOCCOCCOCCOCCOC)c1OCCOCCOCCOCCOCCOC [10e] | 0.11 ×10⁻⁶ cm/s | 85 fold | 398 nM | 
2 | COC(=O)c1cc2c([nH]1)C(=O)C=C1N(C(=O)c3cc4cc(OC)c(OC)c(OC)c4[nH]3)CC3CC123 (stereo not drawn) [compound 2, duocarmycin SA, reference compound] | 9.5 ×10⁻⁶ cm/s |  |  | 
3 | COCCOc1cc2cc(C(=O)N3C[C@@H](CCl)c4c3cc(O)c3[nH]c(C(=O)OC)cc43)[nH]c2c(OCCOC)c1OCCOC [10a] |  |  |  | approximately 5 fold
4 | COCCOCCOCCOCCOCCOc1c(OC)cc2cc(C(=O)N3C[C@@H](CCl)c4c3cc(O)c3[nH]c(C(=O)OC)cc43)[nH]c2c1OC [15e] | 2.1 ×10⁻⁶ cm/s |  |  | 30 fold
5 | COCCOc1c(OC)cc2cc(C(=O)N3C[C@@H](CCl)c4c3cc(O)c3[nH]c(C(=O)OC)cc43)[nH]c2c1OC [15a] | 4 ×10⁻⁶ cm/s |  |  | approximately 2 fold

— article PMC3793852 (Journal of medicinal chemistry, 2013)
